Results taken from patent US20260347399A1, “BRAIN PENETRATING PEPTIDES AND METHODS OF USE” (priority 2022, published 2026).

How the values were obtained:
[1] = system: mouse brain; assay: In vivo T7 phage display (biopanning), high throughput sequencing of brain phage; details: for reads associated with each sequence (Ion torrent sequencing): Round 5 of biopanning
Experimental: The in vivo phage screening in male Balb/C mice was performed as described in (Põšnograjeva et al., 2022) with some alterations. To reduce the background of unspecific phages in the brain, 4.5×10^10 pfu of UV-inactivated control insertless T7 phage was injected i.p. 30 min later, CX7C naïve T7 phage library or the phage pool recovered from the brain in the previous round of biopanning was injected i.v. and allowed to circulate for 30 min. The mice were anesthetized and perfused with PBS intracardially. The brain was removed, homogenized in LB-NP40 (1%) and the phages in the lysate were rescued by amplification in semi-solid media in E. coli strain BLT5403. Peptide-encoding portion of the phage genome was sequenced using Ion Torrent high throughput sequencing (HTS). 8 mice were used in the first round of biopanning (R1) to prevent creating a narrow bottleneck of selection in the first round of biopanning. 2 mice were used for all subsequent rounds (R2 . . . . R5). R5 was repeated with the additional step of isolating brain CD31+ cells from CD31− cells by magnetic-activated cell sorting. The mouse brains were dissociated using Dounce tissue grinder and Adult Brain Dissociation Kit (#130-107-677) and CD31+ cells were isolated from all the other brain cells using CD31 MicroBeads (#130-097-418) following the manufacturer's protocol for isolation and cultivation of endothelial cells from adult mouse brain. The cells were lysed in LB-NP40 (1%) and the samples were further processed following the same steps with samples of whole brain.
To identify peptides that accumulate in mouse brain, cross the blood-brain barrier and reach the brain parenchyma cells, in vivo T7 phage display was used. For round 1 of biopanning, naïve CX7C T7 peptide-phage library was injected into mice i.v. The phages accumulated in brain were rescued to be used as input in a subsequent round of biopanning. A consistent increase in the % of injected phage accumulating in the brain tissue through rounds 1 . . . 5 of biopanning was observed (FIG. 1A; To assess the % of injected phage that accumulated in the brain throughout the five rounds of biopanning (R1-R5), Peptide-phages were injected i.v. and following 30 min circulation mice were perfused with PBS. The phages rescued from the brain were reamplified and injected for a subsequent round of biopanning). The 5th round of bio-panning was then repeated with an additional step of isolating CD31+ brain endothelial cells from CD31− brain cells to detect peptides that not only accumulate in the brain, but also penetrate the endothelial cell layer lining the brain blood vessels (FIG. 1B; The total amount of phage rescued from mouse brain CD31+ and CD31− cell fractions after R5 with the additional step of isolating brain endothelial (CD31+) cells from all the other brain cells (parenchyma cells; CD31−)).
A complete listing of peptides that were identified from Ion Torrent high throughput sequencing from bio-panning Round 5 is set forth in Table 1B.

[2] = system: mouse brain; assay: In vivo phage display with CX4CYX library; details: for R1 reads: round 1; for R3 reads: round 3; for R3 > R1 (ratio of sequencing reads between round 3 and round 1): round 3 / round 1
Experimental: In vivo phage display with CX4CYX library was performed in three selection rounds. Phage library was injected intravenously to Balb/c mice and allowed to circulate for one hour. After circulation, the animals were anesthetized and perfused intracardially with acid and detergent buffers. Brain and control organs were collected and homogenized in 1% NP40-LB. Bound phages were rescued by amplification in E. coli and their genomic DNA was sequenced by Ion Torrent next generation DNA sequencing system.
A novel phage library CX4CYX was constructed based on the alanine-leucine screen to find new brain homing peptides). This knowledge directed us to construct a novel phage library CX4CYX (X—any amino acid), where Cys1, Cys6 and Tyr7 remained in their intact positions, and the four amino acid variable-domain laid between the cysteines, and one amino acid variability after Tyr7. Three rounds of phage bio-panning was performed to allow enrichment of peptides in the brain. Again acid and detergent buffers were used for perfusion to remove non-specifically bound phages from the brain after systemic administration of phage library (round 1) and recovered brain phage pools (round 2 and 3). HTS reads from round 1 to round 3 indicated decent enrichment of in-frame peptides in the brain (Table 6).

[3] = mouse 325, total reads in sample 135061
[4] = mouse 326, total reads in sample 218048

Substance	reads associated with each sequence (Ion torrent sequencing) [1, 3] [reads]	reads associated with each sequence (Ion torrent sequencing) [1, 4] [reads]	R1 reads [2] [reads]	R3 reads [2] [reads]	R3 > R1 (ratio of sequencing reads between round 3 and round 1) [2]	representation of peptide sequence in brain ([1]; whole brain after round 5, CD31+ and CD31- brain cell fractions)
MLGDPNLARRRVISRAKLAAALE	4716	8755	–	–	–	–
CACPLCY [CAGPLCY]	–	–	3	1232	411	–
CVGTLCY	–	–	21	11631	554	–
CVGQLCY	–	–	12	5355	446	–
MLGDPILASRAVISRAKLAAA	350	399	–	–	–	–
CMGDLCY	–	–	3	837	279	–
MLGDPILASRRVISRAKLAAVLE	51	292	–	–	–	–
MLGDPILASRRVISRAKLEAALE	129	251	–	–	–	–
CKGSNCY	–	–	4	2037	509	–
MIGDPNFAIRAVISRAKLAAALE	543	825	–	–	–	–
CQGALCY	–	–	27	8612	319	–
MLGDPNIVAKLAAALE	271	368	–	–	–	–
MIGDPILASRRVISR	77	76	–	–	–	–
MLGDPILASRRVISRAKLAAAFE	46	269	–	–	–	–
MLGDPILASRRVISRAKLAAALD	34	119	–	–	–	–
MLGDPNSC	84	216	–	–	–	–
CAGSMCY	–	–	14	9077	648	–
CEGSLCY	–	–	3	2833	944	–
MLGDPILASERVISRAKLAAASS	47	169	–	–	–	–
MIGDPILASRRVISRAKLAA	254	286	–	–	–	–
MLGDPNS	57	84	–	–	–	–

Substance	reads associated with each sequence (Ion torrent sequencing) [1, 3] [reads]	reads associated with each sequence (Ion torrent sequencing) [1, 4] [reads]	R1 reads [2] [reads]	R3 reads [2] [reads]	R3 > R1 (ratio of sequencing reads between round 3 and round 1) [2]	representation of peptide sequence in brain ([1]; whole brain after round 5, CD31+ and CD31- brain cell fractions)
CTGSLCY	–	–	64	43464	679	–
CEGALCY	–	–	17	39863	2345	–
MLGDPILASRRVISRAKLADALE	142	359	–	–	–	–
MLGDPILASRRVISRAKLAATLE	39	143	–	–	–	–
MLGDPNSSSVDKLAAALE	674	588	–	–	–	–
MLGDPILASRRVISRAKLAAALG	33	108	–	–	–	–
CVCANCY [CVGANCY]	–	–	24	7359	307	–
MLGDPILASRRVISRAKLAAALE [Pep1]	80229	132268	–	–	–	most represented peptide sequence in the whole brain after round 5 of bio-panning as well as in CD31+ and CD31− brain cell fractions
MLGDPILASRRVISRAKLAAAL	1495	2334	–	–	–	–
MLGDPNSCTEGTRVTC	1533	2339	–	–	–	–
MLGDPILASRRVISRAKLA	150	172	–	–	–	–
MIGDPILAGRRIVSRAKLAAALE	315	480	–	–	–	–
MIGDANSSS	2370	2197	–	–	–	–
CTGSMCY	–	–	3	841	280	–
MLGDPILASRAVISRAKLAAHSS	84	142	–	–	–	–
MLGDPNLARRRVISRAKLAAAL	89	188	–	–	–	–
MLGDPILASRRVISRAK	67	100	–	–	–	–
IMLGDPILASRRVISRAKL	68	116	–	–	–	–
CQGSNCY	–	–	4	1202	301	–
MLGDPILASRAVISRAKLAAALS	54	194	–	–	–	–
